Values quoted from earlier work as cited in patent US12329853B2, “Compositions and methods for treating ocular diseases” (OCULAR THERAPEUTIX, INC., priority 2020, dated 2025).

Key:
[1] = organic solvents typically employed for fabrication of microspheres using solvent evaporation
[2] = molecular target: FP prostanoid receptor (Homo sapiens, UniProt P43088)
FP prostanoid receptor, sequence (P43088 whole entry): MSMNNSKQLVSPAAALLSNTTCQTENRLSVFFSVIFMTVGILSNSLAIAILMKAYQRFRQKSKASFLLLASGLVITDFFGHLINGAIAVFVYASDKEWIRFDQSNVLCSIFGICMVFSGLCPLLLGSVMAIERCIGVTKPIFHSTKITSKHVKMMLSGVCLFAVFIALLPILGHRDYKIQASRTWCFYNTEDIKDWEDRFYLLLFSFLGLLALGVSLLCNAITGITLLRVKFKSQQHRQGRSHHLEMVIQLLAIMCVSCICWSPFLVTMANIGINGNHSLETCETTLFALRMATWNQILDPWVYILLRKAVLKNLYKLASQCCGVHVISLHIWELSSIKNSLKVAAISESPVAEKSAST

SMILES | Solubility in organic solvents [1] | Selectivity for the FP prostanoid receptor compared to latanoprost [2] | Potency compared to latanoprost ([2]; FP prostanoid receptor)
CC(C)OC(=O)CCC/C=C\C[C@@H]1[C@@H](CC[C@@H](O)CCc2ccccc2)[C@H](O)C[C@@H]1O [Latanoprost] | readily soluble | – | –
O=C(O)CCC/C=C\C[C@@H]1[C@@H](/C=C/[C@@H](O)COc2cccc(C(F)(F)F)c2)[C@H](O)C[C@@H]1O [free acid of travoprost] | – | greater selectivity | higher potency
